Laboratory results published in US20100055078A1, “METHODS OF MAKING A TRANSPLANTABLE BONE REPAIR SYSTEM USING MULTIPOTENT STEM CELLS” (The Government of the U.S.A, as represented by the …, priority 2008, published 2010).

What was measured:
Format in all cases: cell-based
[1] = system: MC3T3-E1 cell monolayers; assay: Cell re-growth and migration into the coverslip defect, rhodamine phalloidin microscopy; conditions: for re-growth of cells into the defect, in words / relative migration: 24 hours after injury; for relative migration: from wound site to migrating edge
Description: Cell culture: Cloned MC3T3-E1 osteoblasts (Kodama et al., J. Cell. Physiol. 112:89-95, 1992) were maintained in alpha MEM medium (Catalog No. MT15012CV Fisher Scientific, Pittsburgh, Pa.) containing 10% fetal bovine serum (FBS), 1% antibiotic solution and 1% glutamine solution and subcultured every 3 to 4 days. The cells were subcultured by incubating with trypsin for five minutes and resuspending at a concentration of 3×10^5 cells/ml. For experiments, cells were grown in the same medium as above, using multiwell plates (35 mm for microscopy and 22 mm for thymidine uptake studies). Each well contained a round 12 mm glass cover slip. Cultures for microscopy contained a 22 mm diameter coverslip with a 12 mm coverslip on top. After three days, the cells reached confluence and differentiation medium (DM) was added. DM was alpha MEM medium containing 10% FBS, 1% antibiotic solution and 1% glutamine solution, supplemented with ascorbic acid (50 μg/ml) and β-glycerol phosphate (10 mM) to induce mineralization. The cultures were then incubated for 9 more days. Microscopic examination was done at this time, using Von Kossa stain to confirm mineralization of the cultures. A critical defect in the mineralized cell layers was created by removing the 12 mm coverslips under sterile conditions and then incubating the cultures for an additional 24 hours in DM containing 4% FBS with IGF-1 (20 ng/ml), FGF-2 (0.2 ng/ml), PDGF (3 ng/ml), TGFβ ([…]). At least triplicate independent biological samples in multiple experiments were carried out for data collection.
Microscopy: At the conclusion of the 24 hour incubation, the remaining 22 mm coverslip containing the regenerating area of the culture was removed. The specimen was rinsed five times in room temperature phosphate buffered saline (PBS) and fixed. Cells were visualized with the F-actin probe rhodamine phalloidin (Invitrogen, Carlsbad, Calif.). After rinsing in distilled water and air drying the samples, the coverslips were mounted on microscope slides using FLUOROMOUNT™ and the cells were examined and photographed. Photomicrographs were made on a Zeiss Axioskop epi-fluorescent microscope using a 40× objective. Migration was measured on the photomicrographs from the site of the wound to the migrating edge using a metric ruler (n=3) for each measurement.

[2] = system: Wounded Mineralized MC3T3-E1 Cells; assay: Total protein content of wounded mineralized cultures (Bio-Rad DC protein assay); conditions: normalized to the control culture; 24 hours of treatment
Description: (§1) Cell culture: Cloned MC3T3-E1 osteoblasts (Kodama et al., J. Cell. Physiol. 112:89-95, 1992) were maintained in alpha MEM medium (Catalog No. MT15012CV Fisher Scientific, Pittsburgh, Pa.) containing 10% fetal bovine serum (FBS), 1% antibiotic solution and 1% glutamine solution and subcultured every 3 to 4 days. The cells were subcultured by incubating with trypsin for five minutes and resuspending at a concentration of 3×10^5 cells/ml. For experiments, cells were grown in the same medium as above, using multiwell plates (35 mm for microscopy and 22 mm for thymidine uptake studies). Each well contained a round 12 mm glass cover slip. Cultures for microscopy contained a 22 mm diameter coverslip with a 12 mm coverslip on top. After three days, the cells reached confluence and differentiation medium (DM) was added. DM was alpha MEM medium containing 10% FBS, 1% antibiotic solution and 1% glutamine solution, supplemented with ascorbic acid (50 μg/ml) and β-glycerol phosphate (10 mM) to induce mineralization. The cultures were then incubated for 9 more days. Microscopic examination was done at this time, using Von Kossa stain to confirm mineralization of the cultures. A critical defect in the mineralized cell layers was created by removing the 12 mm coverslips under sterile conditions and then incubating the cultures for an additional 24 hours in DM containing 4% FBS with IGF-1 (20 ng/ml), FGF-2 (0.2 ng/ml), PDGF (3 ng/ml), TGFβ (2 ng/ml) or PGE2 (2 μg/ml). At least triplicate independent biological samples in multiple experiments were carried out for data collection.
Protein assay: Protein concentration was determined by Bio-Rad DC™ protein assay (Bio-Rad, Hercules, Calif.) according to the manufacturer's protocol.

[3] = system: MC3T3-E1 osteoblasts; assay: [3H]-thymidine incorporation into DNA in wounded mineralized cell layers (in vitro fracture model); conditions: for change in DNA synthesis (thymidine incorporation), in words: wounded MC3T3-E1, within twenty-four hours of treatment; for increase of thymidine incorporation: wounded MC3T3-E1, 24 hour treatment, FGF-2 0.2 ng/ml, TGFβ 2 ng/ml, PGE2
Description: as §1
Tritiated thymidine incorporation into DNA: At the conclusion of the 24 hour incubation, the culture medium was removed and the cells were incubated for 15 minutes at 37° C. in 1 ml PBS containing tritiated thymidine (4 μCi/ml). Following this incubation, the PBS was removed and the cells washed 3 times with ice cold trichloroacetic acid (TCA) followed by ice cold ethanol and allowed to air dry. Then 1 ml of sarkosyl lysis buffer ([…] containing 1% sarkosyl) was added to each well; all the cells were solubilized after 30 minutes. Finally, after mixing the resulting solution with a pipette, radioactivity was counted in a scintillation counter and protein content was measured. The data was calculated and expressed as disintegrations per minute per microgram protein.

[4] = system: MC3T3-E1 cells; assay: Cell growth on pre-treated nylon ribbons; conditions: up to 4 days, 0.1 mg/ml fibrinogen, HAHp, 50 ng/ml FGF-2
Description: Growth on Nylon Ribbons: 250,000 MC3T3-E1 osteoblast cells were seeded in 12-well plates containing 1 inch by 1 inch nylon ribbons pre-treated with 0.1 mg/ml fibrinogen or 1 mg/ml HA and 3 mg/ml heparin (HAHp) with or without 50 ng/ml FGF-2. Cells were visualized under 10× objective at 1 and 4 days after seeding.

[5] = system: MC3T3-E1 cells; assay: Cell proliferation on ECM protein coated wells with FGF-2, CyQuant; conditions: wells containing ECM proteins and FGF-2
Description: Cell Proliferation: Five-hundred MC3T3-E1 osteoblast like cells were plated on a 96 well plate with ECM proteins coated on the bottom of the well. Sextuplet independent samples with and without FGF-2 were each plated in wells and 500 MC3T3-E1 cells were then adhered and grown for 3 days. Cell number was measured using CyQuant assay kit. Medium was changed daily

Row | Compound | re-growth of cells into the defect, in words [1] | Total Protein/Culture [2] | change in DNA synthesis (thymidine incorporation), in words [3] | cell growth on nylon ribbon, in words [4] | MC3T3-E1 cell proliferation, in words [5] | pattern of re-growth and cell morphology in the defect, in words ([1]; FGF-2 0.2 ng/ml, PGE2 10 μg/ml) | relative migration [1] | increase of thymidine incorporation [3]
1 | insulin-like growth factor-1 [IGF-1] | little and unremarkable re-growth | 1.19 | small and unremarkable changes | – | – | – | – | –
2 | platelet-derived growth factor [PDGF] | little and unremarkable re-growth | 1.38 | small and unremarkable changes | – | – | – | – | –
3 | fibrinogen | – | – | – | Little or no cell proliferation | – | – | – | –
4 | fibronectin | – | – | – | – | significantly increased | – | – | –
5 | CCCCC[C@H](O)/C=C/[C@H]1[C@H](O)CC(=O)[C@@H]1C/C=C\CCCC(=O)O [PGE2, prostaglandin E2, reference compound] | showed cellular proliferation at the interface of the mature cultures and the defect | 1.51 | significantly enhanced | – | – | more linear pattern and formed multiple elongated pseudopodia | 3.2±0.2 mm | > 3.3 fold
6 | transforming growth factor β [TGFβ] | showed cellular proliferation at the interface of the mature cultures and the defect | 1.55 | significantly enhanced | – | – | – | 1.8±0.4 mm | more than 2 fold
